{"source": "patent US4590203A", "about": "“Derivatives of thiophene-2-carboxylic acid and their pharmaceutically acceptable acid or base addition salts and use in treatment of conditions caused by thromboxane A2” (Laevosan-Gesellschaft m.b.H. & Co. KG, priority 1982, dated 1986)", "key": {"platelet aggregation [1]": {"system": "platelet aggregation", "assay": "collagen induced platelet aggregation", "type": "cell-based, human", "settings": "1-2 μg/ml collagen; concentration not given", "description": "(§1) In 0,6 IU/ml thrombin stimulated human washed platelets the IC50 (μM) for inhibition of TX formation (measured by TXB2 specific radioimmunoassay) was 1,1 for LG 82-4-00 and 1,3 for LG 82-4-01. The two substances inhibited TXB2 -formation and 1-2 μg/ml collagen induced platelet aggregation by more than 95%."}, "thromboxane synthetase": {"target": "T1, thromboxane synthetase (Homo sapiens, UniProt P24557)", "T1 construct": "thrombin stimulated human washed platelets; endogenous in cells; host or cells: human washed platelets", "T1 sequence (P24557 1-533)": "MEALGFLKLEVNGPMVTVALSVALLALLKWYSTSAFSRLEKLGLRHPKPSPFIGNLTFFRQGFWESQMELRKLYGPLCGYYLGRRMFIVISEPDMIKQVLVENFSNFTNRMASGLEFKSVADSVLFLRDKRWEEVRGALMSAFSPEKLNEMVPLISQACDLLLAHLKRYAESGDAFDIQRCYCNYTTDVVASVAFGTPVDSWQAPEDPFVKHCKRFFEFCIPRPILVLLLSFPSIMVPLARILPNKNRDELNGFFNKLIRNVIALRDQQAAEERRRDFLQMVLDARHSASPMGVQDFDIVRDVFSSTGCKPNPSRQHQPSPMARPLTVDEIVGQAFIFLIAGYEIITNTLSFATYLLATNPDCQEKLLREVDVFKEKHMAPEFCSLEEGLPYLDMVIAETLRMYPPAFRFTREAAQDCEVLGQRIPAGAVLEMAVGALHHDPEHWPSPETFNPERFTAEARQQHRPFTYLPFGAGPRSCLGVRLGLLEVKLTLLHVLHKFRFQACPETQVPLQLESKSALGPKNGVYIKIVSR", "assay": "inhibition of thromboxane (TX) formation in thrombin stimulated washed platelets, TXB2 specific radioimmunoassay", "type": "cell-based", "settings": "for IC50: 0,6 IU/ml thrombin stimulated human washed platelets, TXB2 specific radioimmunoassay; for inhibition of TXB2-formation: concentration not given; for specificity as inhibitor of thromboxane synthetase: in vitro-study, inhibition of TX formation on platelet aggregation", "description": "as §1"}, "platelet aggregation [2]": {"system": "platelet aggregation", "assay": "proaggregatory activity and primary wave ADP aggregation", "type": "cell-based", "text": "Neither LG 82-4-00 nor LG 82-4-01 had vasoconstrictor, proaggregatory or antagonistic activity or affected primary wave ADP aggregation (P >0,05)."}}}
{"molecule": "Cl.O=C(O)c1ccc(OCCn2ccnc2)s1", "note": "[LG 82-4-00, 5-[2-(1-Imidazolyl)-1-ethoxy]thiophene-2-carboxylic acid hydrochloride]", "values": [{"measurement": "inhibition of collagen induced platelet aggregation", "setting": "platelet aggregation [1]", "value": "more than 95%"}, {"measurement": "IC50", "setting": "thromboxane synthetase", "value": 1100, "unit": "nM"}, {"measurement": "inhibition of TXB2-formation", "setting": "thromboxane synthetase", "value": "more than 95%"}, {"measurement": "specificity as inhibitor of thromboxane synthetase", "setting": "thromboxane synthetase", "value": "specific inhibitors of thromboxane synthetase"}, {"measurement": "proaggregatory activity", "setting": "platelet aggregation [2]", "value": "Neither"}]}
{"molecule": "Cl.O=C(O)c1cc(Cl)c(OCCn2ccnc2)s1", "note": "[LG 82-4-01, 4-Chloro-5-[2-(1-imidazolyl)-1-ethoxy]-thiophene-2-carboxylic acid hydrochloride]", "values": [{"measurement": "inhibition of collagen induced platelet aggregation", "setting": "platelet aggregation [1]", "value": "more than 95%"}, {"measurement": "IC50", "setting": "thromboxane synthetase", "value": 1300, "unit": "nM"}, {"measurement": "inhibition of TXB2-formation", "setting": "thromboxane synthetase", "value": "more than 95%"}, {"measurement": "specificity as inhibitor of thromboxane synthetase", "setting": "thromboxane synthetase", "value": "specific inhibitors of thromboxane synthetase"}, {"measurement": "proaggregatory activity", "setting": "platelet aggregation [2]", "value": "Neither"}]}
